Where a name gives a salt, the structure may show the parent alone.
What was measured:
PI3Kα = PI3Kα (Homo sapiens (Human), UniProt P42336); assay: Inhibition of PI3Kα (ADP-Glo kinase activity assay, ATP to ADP conversion); format: biochemical; conditions: 25 μM PIP2:PS, 60 μM ATP, 30 min reaction, luminescence
Method: Quantification of ATP to ADP conversion as a measure of PI3Kα activity. Active PI3Kα (Life Technologies), in the presence or absence of PI3Kα inhibitor, was reacted with PIP2:PS (Life Technologies), a substrate specifically optimized for use with Class I PI3 kinases, and ultrapure ATP (Promega). The conversion of ATP to ADP by PI3Kα was measured as luminescence signal via Promega ADP-Glo kinase activity assay. Assay was validated using published PI3Kα inhibitors LY294002, PI-103, BYL719, GDC0198 and also DMSO vehicle control.
Compounds were prepared at 100× final concentration as a 12-point, 1:3 serial-dilution in DMSO series, with DMSO control as 12th point. Compound was then diluted in (25 mM HEPES pH 7.5, 1 mM EGTA, 0.3% CHAPS) prior to addition to PI3Kα. Active PI3Kα diluted to 0.24 ng/μL (1.1 nM) in (50 mM HEPES pH 7.5, 6 mM MgCl2, 1 mM EGTA, 200 mM NaCl, 0.03% CHAPS, 8 mM DTT) was incubated with compound for 0 hr and 3 hr prior to the start of the reaction. 25 μM PIP2:PS and 60 μM ATP were diluted from stock in (25 mM HEPES pH 7.5, 1 mM EGTA, 0.3% CHAPS) and added to initiate the PI3Kα reaction. Reaction time was 30 minutes. ATP to ADP conversion was measured in Luminescence Counts on DTX880 Plate Reader (Beckman Coulter). Compound IC50s were reported using GraphPad Prism software. Analytical method was non-linear regression, 4-parameter curve fit with bottom fit to validated PI3Kα inhibitor reference controls and no top fit (floating top).

[1] = tested on: (Ser-473) pAKT in B103 (Rat Neuroblastoma) cells; assay: pAKT protocol: loss of (Ser-473) pAKT by AlphaScreen in insulin-stimulated B103 cells; format: cell-based; conditions: (Ser-473) pAKT/total AKT IC50, 2-hour pretreatment, 2.5 μg/mL insulin 20 minutes
Method: Inhibition of the PI3K-AKT-mTOR pathway was measured by quantifying the loss of (Ser-473) pAKT using AlphaScreen (Perkin Elmer). B103 (Rat Neuroblastoma) cells were seeded in serum containing medium (High Glucose DMEM (-Phenol Red)+10% FBS+2× Glutamax+1 mM Sodium Pyruvate+10 mM HEPES+1× Non-Essential Amino Acids+1× Pen/Strep) on a 96-well tissue culture treated plate and grown for 20 hours. Cells were then serum starved in serum free medium (High Glucose DMEM (-Phenol Red)+1× Glutamax+1 mM Sodium Pyruvate+1× Pen/Strep) for 6 hours prior to a 2-hour pretreatment with inhibitors of the pathway, including reference inhibitor LY294002. These inhibitors were prepared at a 200× final concentration as a 6-point, 1:3 serial dilution in DMSO series, with DMSO as the 7th point. The inhibitors were then diluted in experimental medium (High Glucose DMEM (-Phenol Red)+1× Glutamax+1 mM Sodium Pyruvate+1× Pen/Strep+25 mM HEPES+0.1% BSA) and combined with the cells at 1× final concentration in 0.5% DMSO. […] Cells were promptly lysed using Perkin Elmer proprietary lysis buffer and the (Ser-473) pAKT and total AKT contained in the lysate was measured by AlphaScreen. In AlphaScreen, donor beads were coated with streptavidin to capture one of the antibodies, which is biotinylated. Acceptor beads were coated with Protein A to immobilize the other antibody. In the presence of target protein, the two antibodies bring the donor and acceptor beads close together, generating signal. The amount of light emission is directly proportional to the amount of target protein present in the sample. For each inhibitor tested: the ratio of measured (Ser-473) pAKT/totalAKT was plotted in GraphPad Prism as a 7-point, non-linear regression, 4-parameter curve with bottom constrained to reference control bottom and unconstrained top anchored to DMSO.

Chain of PI3Kα (P42336 whole entry): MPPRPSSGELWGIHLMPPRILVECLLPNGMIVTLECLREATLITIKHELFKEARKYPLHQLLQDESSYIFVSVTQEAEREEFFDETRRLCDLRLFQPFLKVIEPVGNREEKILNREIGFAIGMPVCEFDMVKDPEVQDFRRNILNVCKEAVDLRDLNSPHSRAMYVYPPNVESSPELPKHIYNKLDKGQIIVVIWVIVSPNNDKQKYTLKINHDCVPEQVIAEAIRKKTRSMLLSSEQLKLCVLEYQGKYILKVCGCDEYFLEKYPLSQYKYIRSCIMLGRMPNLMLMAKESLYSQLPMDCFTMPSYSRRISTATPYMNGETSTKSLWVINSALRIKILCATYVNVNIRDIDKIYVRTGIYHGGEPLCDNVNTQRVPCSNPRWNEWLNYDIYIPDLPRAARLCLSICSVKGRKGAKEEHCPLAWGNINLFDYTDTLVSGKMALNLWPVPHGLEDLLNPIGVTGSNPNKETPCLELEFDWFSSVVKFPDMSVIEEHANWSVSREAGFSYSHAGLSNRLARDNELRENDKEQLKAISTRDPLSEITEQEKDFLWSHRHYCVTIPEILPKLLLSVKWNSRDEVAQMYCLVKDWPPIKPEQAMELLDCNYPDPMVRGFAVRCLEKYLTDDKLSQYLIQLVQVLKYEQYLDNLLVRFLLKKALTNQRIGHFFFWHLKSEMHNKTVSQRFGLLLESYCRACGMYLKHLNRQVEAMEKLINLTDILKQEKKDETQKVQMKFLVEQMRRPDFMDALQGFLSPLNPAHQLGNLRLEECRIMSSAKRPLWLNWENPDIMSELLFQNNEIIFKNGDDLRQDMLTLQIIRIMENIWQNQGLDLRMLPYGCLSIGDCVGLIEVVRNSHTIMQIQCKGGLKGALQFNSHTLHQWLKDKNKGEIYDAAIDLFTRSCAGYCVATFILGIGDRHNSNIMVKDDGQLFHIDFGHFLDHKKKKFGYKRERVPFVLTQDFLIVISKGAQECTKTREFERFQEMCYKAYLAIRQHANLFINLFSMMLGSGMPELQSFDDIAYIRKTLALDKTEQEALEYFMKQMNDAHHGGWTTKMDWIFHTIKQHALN
Chain of PI3Kα (P27986 whole entry partner): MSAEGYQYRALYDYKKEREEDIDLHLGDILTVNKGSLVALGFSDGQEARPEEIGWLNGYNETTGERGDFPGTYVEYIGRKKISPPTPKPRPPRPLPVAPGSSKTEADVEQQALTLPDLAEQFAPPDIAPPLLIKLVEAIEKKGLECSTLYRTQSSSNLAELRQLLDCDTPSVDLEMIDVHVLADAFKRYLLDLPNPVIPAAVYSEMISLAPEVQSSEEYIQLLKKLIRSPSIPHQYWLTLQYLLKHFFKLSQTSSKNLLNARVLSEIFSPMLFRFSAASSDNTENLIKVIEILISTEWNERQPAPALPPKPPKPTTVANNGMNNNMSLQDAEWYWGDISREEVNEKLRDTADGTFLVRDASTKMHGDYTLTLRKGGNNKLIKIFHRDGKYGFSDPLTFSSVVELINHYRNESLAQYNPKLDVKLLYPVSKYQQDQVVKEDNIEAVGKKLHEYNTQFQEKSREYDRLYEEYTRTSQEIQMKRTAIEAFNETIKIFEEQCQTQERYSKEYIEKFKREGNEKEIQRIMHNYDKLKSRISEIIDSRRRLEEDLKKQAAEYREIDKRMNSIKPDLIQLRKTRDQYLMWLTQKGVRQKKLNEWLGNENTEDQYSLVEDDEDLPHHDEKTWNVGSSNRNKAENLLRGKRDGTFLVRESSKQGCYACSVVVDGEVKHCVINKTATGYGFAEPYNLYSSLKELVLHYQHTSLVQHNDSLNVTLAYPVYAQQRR

Compound	PI3Ka IC50 (PI3Kα) [µM]	IC50 [1] [µM]
Nc1ncc(-c2cc(N3CCOCC3)cc(S(=O)(=O)c3coc4ccccc34)c2)cn1 [Compound 109, 5-(3-(benzofuran-3-ylsulfonyl)-5-morpholinophenyl)pyrimidin-2-amine]	1.2	15
C=C(c1ccccc1)c1cc(-c2cnc(N)nc2)nc(N2CCOCC2)c1 [Compound 126, 5-(6-morpholino-4-(1-phenylvinyl)pyridin-2-yl)pyrimidin-2-amine]	0.27	0.49
O=C(C1CC1)N1CC(S(=O)(=O)c2cc(-c3cnc(NC4CC4)nc3)cc(N3CCOCC3)c2)C1 [Compound 102, cyclopropyl(3-((3-(2-(cyclopropylamino)pyrimidin-5-yl)-5-morpholinophenyl)sulfonyl)azetidin-1-yl)methanone]	0.54	6.79
Nc1ncc(-c2cc(N3CCOCC3)cc(S(=O)(=O)C3CN(C(=O)C4CC4)C3)c2)cn1 [Compound 77, (3-((3-(2-aminopyrimidin-5-yl)-5-morpholinophenyl)sulfonyl)azetidin-1-yl)(cyclopropyl)methanone]	0.10	3.19
Nc1ncc(-c2cc(N3CCOCC3)cc(S(=O)(=O)[C@@H]3CCOC3)c2)cc1C(F)(F)F [Compound 100, (R)-5-(3-morpholino-5-((tetrahydrofuran-3-yl)sulfonyl)phenyl)-3-(trifluoromethyl)pyridin-2-amine]	1.6	48.2
Nc1ncc(-c2cc(N3CCOCC3)cc(S(=O)(=O)Cc3ccc4[nH]cnc4c3)c2)cn1 [Compound 63, 5-(3-(((1H-benzo[d]imidazol-5-yl)methyl)sulfonyl)-5-morpholinophenyl)pyrimidin-2-amine]	0.47	3.71
Nc1ncc(-c2cc(N3CCOCC3)cc(S(=O)(=O)Cc3ccncc3)c2)cn1 [Compound 97, 5-(3-morpholino-5-((pyridin-4-ylmethyl)sulfonyl)phenyl)pyrimidin-2-amine]	0.51	12.4
NCCNc1ncc(-c2cc(N3CCOCC3)cc(S(=O)(=O)Cc3ccc(F)cc3)c2)cn1 [47 (as a HCl salt), N1-(5-(3-((4-fluorobenzyl)sulfonyl)-5-morpholinophenyl)pyrimidin-2-yl)ethane-1,2-diamine]	1.2	2.18
Nc1ncc(-c2cc(N3CCCc4ccccc43)cc(N3CCOCC3)n2)cn1 [Compound 140, 5-(4-(3,4-Dihydroquinolin-1(2H)-yl)-6-morpholinopyridin-2-yl)pyrimidin-2-amine]	0.12	0.31
Nc1ncc(-c2cc(N3CCOCC3)cc(S(=O)(=O)C3CN(C(=O)Cc4ccc(F)cc4)C3)c2)cn1 [Compound 78, 1-(3-((3-(2-aminopyrimidin-5-yl)-5-morpholinophenyl)sulfonyl)azetidin-1-yl)-2-(4-fluorophenyl)ethan-1-one]	0.18	4.52
CCC(=O)N1CC(S(=O)(=O)c2cc(-c3cnc(N)nc3)cc(N3CCOCC3)c2)C1 [Compound 75, 1-(3-((3-(2-aminopyrimidin-5-yl)-5-morpholinophenyl)sulfonyl)azetidin-1-yl)propan-1-one]	0.25	6.4
Nc1ncc(-c2cc(N3CCOCC3)cc(S(=O)(=O)CCc3ccc(F)cc3)c2)cn1 [Compound 82, 5-(3-((4-fluorophenethyl)sulfonyl)-5-morpholinophenyl)pyrimidin-2-amine]	0.29	10.8
COCNC(=O)N1CC(S(=O)(=O)c2cc(-c3cnc(N)nc3)cc(N3CCOCC3)c2)C1 [Compound 94, 3-((3-(2-aminopyrimidin-5-yl)-5-morpholinophenyl)sulfonyl)-N-(methoxymethyl)azetidine-1-carboxamide]	0.11	19.8
Nc1ncc(-c2cc(N3CCOCC3)cc(S(=O)(=O)c3ccc4ccoc4c3)c2)cn1 [Compound 112, 5-(3-(benzofuran-6-ylsulfonyl)-5-morpholinophenyl)pyrimidin-2-amine]	2.3	22.3
Nc1ncc(-c2cc(N3CCOCC3)cc(S(=O)(=O)c3c[nH]c4ccccc34)c2)cn1 [Compound 114, 5-(3-((1H-indol-3-yl)sulfonyl)-5-morpholinophenyl)pyrimidin-2-amine]	2.4	15.3
CC(C)C(=O)N1CC(S(=O)(=O)c2cc(-c3cnc(N)nc3)cc(N3CCOCC3)c2)C1 [Compound 76, 1-(3-((3-(2-aminopyrimidin-5-yl)-5-morpholinophenyl)sulfonyl)azetidin-1-yl)-2-methylpropan-1-one]	0.30	5.64
Nc1ncc(-c2cc(N3CCOCC3)cc(S(=O)(=O)C3CCCCC3)c2)cn1 [Compound 49, 5-(3-(cyclohexylsulfonyl)-5-morpholinophenyl)pyrimidin-2-amine]	0.49	31.1
Nc1ncc(-c2cc(N3CCOCC3)cc(S(=O)(=O)c3ccccc3)n2)cn1 [Compound 117, 5-(4-morpholino-6-(phenylsulfonyl)pyridin-2-yl)pyrimidin-2-amine]	3.3	17.3
CNc1ccc(-c2cc(N3CCOCC3)cc(S(=O)(=O)[C@@H]3CCOC3)c2)cn1 [Compound 108, (R)-N-methyl-5-(3-morpholino-5-((tetrahydrofuran-3-yl)sulfonyl)phenyl)pyridin-2-amine]	0.69	4.72
CN(C)C(=O)N1CC(S(=O)(=O)c2cc(-c3cnc(N)nc3)cc(N3CCOCC3)c2)C1 [Compound 95, 3-((3-(2-aminopyrimidin-5-yl)-5-morpholinophenyl)sulfonyl)-N,N-dimethylazetidine-1-carboxamide]	0.12	5.19
Nc1ncc(-c2cc(N3CCOCC3)cc(S(=O)(=O)Cc3ccc(N4CCOCC4)cc3)c2)cn1 [Compound 58, 5-(3-morpholino-5-((4-morpholinobenzyl)sulfonyl)phenyl) pyrimidin-2-amine]		41.3
CC1CN(c2cc(S(=O)(=O)c3ccccc3)cc(-c3cnc(N)nc3)n2)CC(C)O1 (centres unmarked) [Compound 150, 5-(6-(2,6-dimethylmorpholino)-4-(phenylsulfonyl)pyridin-2-yl)pyrimidin-2-amine]	0.45	
O=S(=O)(c1ccccc1)c1cc(-c2cnc(NC3CC3)nc2)nc(N2CCOCC2)c1 [Compound 146, N-cyclopropyl-5-(6-morpholino-4-(phenylsulfonyl)pyridin-2-yl)pyrimidin-2-amine]	0.37	
O=S(=O)(Cc1ccc(F)cc1)c1cc(-c2ccc3c(c2)OCCN3)cc(N2CCOCC2)c1 [Compound 45, 7-(3-((4-fluorobenzyl)sulfonyl)-5-morpholinophenyl)-3,4-dihydro-2H-benzo[b][1,4]oxazine]	5.9	
